# According to patent publication US20040059104A1, “Nucleotide mimics and their prodrugs” (priority 2002, published 2004):
# Where two headings read alike, the source gives them in different places.
# Assays:
# [1] = tested on: Escherichia coli; assay: Antimicrobial assay, minimal inhibitory concentration; assay type: cell-based; settings: for MIC: Escherichia coli, read-out: E. coli MIC
# Description: (§1) To examine the antimicrobial potential of the nucleotide mimics of the present invention an assay was employed that allowed the screening of a large number of compounds simultaneously. The type of bacteria chosen to screen the compounds are organisms associated with human disease and represent major groups of bacteria based on their structure and metabolism. Bacterial cultures of Escherichia coli and Staphylococcus aureus were incubated overnight at 37° C. in a shaker incubator. A lawn of each overnight bacterial culture was made by plating […] of bacteria on agar plates containing Nutrient Broth. Immediately after plating, sterile blank paper discs were put on top of the lawn and a compound was applied to each blank paper disc. Plates were then incubated overnight and examined for the inhibition of bacterial growth the following day. […] The plates were incubated overnight at 37° C. and then examined spectrophotometrically at 600 nm to determine the minimum concentration of each compound that inhibited replication of bacteria as determined by no increase in absorbance at 600 nm.
# [2] = in vitro
# Description: Typically the total volume used for the experiment was 500 μl. The final concentrations of the reaction components were as follows:
# The reacton mixtures were made up and incubated at 37° C. At appropriate times aliquots of 25 μl were removed and added to 65 μl ice-cold methanol. These solutions were our at −20° C. and typically overnight. After incubation samples were inutes at high speed in a microcentrifuge. The supernatant was nd the extract was dried under vacuum in a LabConco Centrivap Concentrator. The dried extracts were resuspended in dH2O and filtered to remove particulate before analysis on reverse phase HPLC.
# The reverse phase HPLC columns used for the analysis were either a Phenomenex C18 Aqua column (2×100 mm) or the Phenomenex C18 Aqua column (3×150 mm) used with the appropriate guard column. The HPLC was run at 0.2 ml/min (for the 2×100 mm column) or at 0.5 ml/min (for the 3×150 mm column) with the following buffer system: 5 mM tetrabutylammonium acetate, 50 mM ammonium phosphate, and an acetonitrile gradient running from 5% up to as high as 60%. The amount of remaining parent compound at each time point was used to determine the half-life of the compound. […] Unmodified nucleoside triphosphates were used as positive controls.
# [3] = target: T1, HIV Reverse Transcriptase (Type B, 66 kDa subunit) (Human immunodeficiency virus type 1 group M subtype B, UniProt P04585); assay: HIV Reverse Transcriptase inhibition assays (RNA-directed DNA polymerization, PicoGreen fluorescence); assay type: biochemical; settings: Table 1; template (homopolymer or heteropolymer RNA) not stated; read-out: Ki, Inhibition of HIV Reverse Transcriptase by Nucleotide Mimics
# T1 construct: purified HIV Reverse Transcriptase (Type B, 66 kDa subunit)
# Description: The assays employed to measure inhibition of HIV Reverse Transcriptase (HIV RT) catalyzed/RNA-directed DNA polymerization are described below. The effectiveness of the compounds of the present invention as inhibitors of HIV RT-catalyzed DNA polymerization was measured in the following assays.
# This assay was used to measure the ability of the nucleotide mimics of the present invention to inhibit the enzymatic synthesis of complementary strand DNA from a DNA-primed template of homopolymeric RNA. This assay is a modification of a published procedure (Seville, et al., “Fluorometric Assay for DNA Polymerases and Reverse Transcriptase”, BioTechniques 1996, 21, 664-72).
# The compounds were tested at various concentrations up to 500 μM final concentration. DNA polymerase activity was measured in a reaction buffer containing primed-RNA template and dTTP diluted to appropriate concentrations in assay buffer. Nucleotide mimics of the present invention were diluted in buffer and pipetted into the wells of a 96-well plate. The reaction was initiated by addition of enzyme and allowed to proceed at 37° C. for 10 minutes. The reaction was quenched by addition of 5 μL 0.2 M EDTA, pH 8.0.
# 200 μL of diluted PicoGreen dsDNA Quantitation Reagent (Molecular Probes, Inc, Eugene, Oreg.) was added to each well of a 96-well plate and incubated at room temperature for 5 minutes. Plate wells were read on a microplate fluorometer (Molecular Devices Corp., Sunnyvale, Calif.). The wells were excited at 480 nm and the fluorescence emission intensity (RFU) was measured at 520 nm. The percentage of inhibition was calculated according to the following equation:
# % Inhibition=[1−(RFU in test reaction−RFU in blank)/(RFU in control reaction−RFU in blank)]×100.
# Each inhibitor was titrated over an appropriate range of concentrations, and inhibition constants were determined using the following equations:
# v=Vm[S]/(Km(1+[I]/Ki)+[S])
# Certain compounds of the present invention were also tested to determine their ability to inhibit HIV RT-catalyzed DNA polymerization on a heteropolymeric primed-RNA template in the presence of all four natural deoxynucleotide triphosphate (dNTP) substrates. This assay is a modification of a published procedure (Parker et al., “Mechanism of Inhibition of Human Immunodeficiency Virus Type 1 Reverse Transcriptase and Human DNA Polymerases α, β, and γ by the 5′-Triphosphates of Carbovir,3′-Azido-3′-deoxythymidine,2′-3′-Dideoxyguanosine, and 3′-Deoxythymidine”, J. Biol. Chem. 1991, 266 (3), 1754-62).
# HIV RT DNA polymerase activity was measured in a reaction buffer containing primed-ribosomal RNA template and dNTPs diluted to appropriate concentrations in assay buffer and pipetted into 1.5 mL microcentrifuge tubes. Nucleotide mimics of the present invention were diluted in buffer and tested at various concentrations up to 5 μM final concentration. The reaction was initiated by addition of enzyme and allowed to proceed at 42° C. for 60 to 90 minutes. The reaction was quenched by addition of 12 μL 0.2 M EDTA, pH 8.0.
# 50 μL each of reaction was transferred to the well of a 96-well plate (in duplicate). 200 μL of diluted PicoGreen dsDNA Quantitation Reagent was added to each well of a 96-well plate and incubated at room temperature for 5 minutes. Plate wells were read on a microplate fluorometer. The wells were excited at 480 nm and the fluorescence emission intensity (RFU) was measured at 520 nm. The percentage of inhibition and inhibition constants […] were determined for representative compounds as described above.
# [4] = in vitro; settings: for Half-Life, Cell Extract Half-Lives of Gemcitibine 5'-Methylendiphosphonate and its Prodrugs: Table 11; for half-life at 500 μM: pH 7.4
# Description: The stability of compounds in cell extracts was examined as follows:
# Cell lysis buffer was added to cell pellets and the cells frozen and thawed 3× using dry ice. The lysis buffer (LB) was composed of the following: 50 mM Tris-HCl, pH 7.4 (100 μl/ml 10× stock), 20% glycerol (200 μl/ml), and 0.5% Triton X-100 (5 μl/ml). 100 μl of LB was added to each microfuge tube containing 10^7 frozen CEM cells. After the cells were lysed the extracts were centrifuged at high speed in a microcentrifuge for 5 minutes and the clarified cell extract transferred to a new tube. The cell stability reaction mixtures contained concentrations of buffer, magnesium, nucleotide, and cell extract as shown below:
# The reaction mixtures were incubated at 37° C. At each time point, including at time zero, 12.5 μl aliquots were added to 40 μl ice-cold methanol. […] The samples were incubated in methanol for at least 60 minutes and typically overnight at −20° C. prior to further processing. The cell extracts were centrifuged at high speed in refrigerated microcentrifuge for 20 minutes and the supernatant transferred to a new tube. The extract was then dried under vacuum in a LabConco Centrivap Concentrator. The samples were then resuspended in 40 or 50 μl dH2O, filtered to remove any particulate, and analyzed by reverse phase HPLC.
# The reverse phase HPLC columns used for the analysis were either a Phenomenex C18 Aqua column (2×100 mm) or the Phenomenex C18 Aqua column (3×150 mm) used with the appropriate guard column. The HPLC flow rate was either 0.2 ml/min (for the 2×100 mm column) or 0.5 ml/min (for the 3×150 mm column) with the following buffer system: 5 mM tetrabutylammonium acetate, 50 mM ammonium phosphate, and an acetonitrile gradient running from 5% up to as high as 60%. The amount of remaining parent compound at each time point was used to determine the half-life of the compound. […] Unmodified nucleoside triphosphates were used as positive controls.
# [5] = tested on: Staphylococcus aureus; assay: Antimicrobial assay, minimal inhibitory concentration; assay type: cell-based
# Description: as §1
# [6] = overnight at 37° C., tested 0-200 μg/ml, NA = Not active
# [7] = value in brackets beside the μg/ml value
# [8] = 50% CEM cell extract, 37° C., 500 μM, time points through 48 hours
compound,measurement,setting,value
"3′-Azido-3′-deoxythymidine 5′-α-P-borano-β,γ-imidotriphosphate [Compound 23]",E. coli MIC,[1]; [6],50 to 100 µg/mL
same,E. coli MIC,[1]; [7],(99-198) uM
same,"Half-Life, Serum Half-Lives of NTPs and AZT Triphosphate Mimics","[2]; bovine, serum",36 h
same,Ki,[3],105 nM
"BP(=O)(OC[C@H]1O[C@@H](n2cc(C)c(=O)[nH]c2=O)C[C@@H]1N=[N+]=[N-])OP(=O)(O)C(F)P(=O)(O)O (stereo partly drawn) [Compound 25, 3′-Azido-3′-deoxythymidine 5′-α-P-borano-β,γ-(fluoromethylene)triphosphate]",Ki,[3],27 nM
"[BH3-][P+](O)(OCC1OC(n2cc(C)c(=O)[nH]c2=O)CC1N=[N+]=[N-])OP(=O)(O)C(F)(F)P(=O)(O)O (single isomer, unassigned) [Compound 27-isomer 2, 3′-Azido-3′-deoxythymidine 5′-α-P-borano-β,γ-(difluoromethylene)triphosphate]",E. coli MIC,[1]; [6],50 µg/mL
same,E. coli MIC,[1]; [7],(93) uM
same,Ki,[3],61 nM
"BP(=O)(OC[C@@H]1O[C@H](n2cc(C)c(=O)[nH]c2=O)C[C@H]1N=[N+]=[N-])OP(=O)(O)C(Cl)(Cl)P(=O)(O)O (single isomer, unassigned; isomer 1) [Compound 26-isomer 1, 3′-Azido-3′-deoxythymidine 5′-α-P-borano-β,γ-(dichloromethylene)triphosphate]",E. coli MIC,[1]; [6],12 µg/mL
same,E. coli MIC,[1]; [7],(21) uM
same,"Half-Life, Serum Half-Lives of NTPs and AZT Triphosphate Mimics","[2]; bovine, serum",45 h
same,"Half-Life, Cell extract Half-Lives of AZT Triphosphate Mimics",[4]; human,>48 h
same,Ki,[3],93 nM
"Nc1ncnc2c1ncn2[C@@H]1O[C@H](COP(=O)(O)OP(=O)(O)OP(=O)(O)O)[C@@H](O)[C@H]1O [Adenosine Triphosphate, reference compound]","Half-Life, Serum Half-Lives of NTPs and AZT Triphosphate Mimics","[2]; Table 6, 50% fetal calf serum, 37° C., 500 μM, time points through 48 hours",2 h
same,half-life at 500 μM,"[2]; bovine, 50% fetal calf serum, Serum Half-Lives of AZT Triphosphate Mimic Prodrugs, Table 7, 37° C., 500 μM, time points through 48 hours",1.5 h
same,half-life at 500 μM,"[2]; bovine, 50% fetal calf serum, Serum Half-Lives of Gemcitibine Diphosphate Mimics and Their Prodrugs, Table 8, 37° C., 500 μM, time points through 48 hours",2.5 h
same,"Half-Life, Cell Extract Half-Lives of AZT 5'-α-P-borano-β,γ-(difluoromethylene) triphosphate Prodrugs","[4]; Table 10, 50% CEM cell extract, 37° C., 500 μM, time points through 48 hours",.25 h
same,"Half-Life, Cell Extract Half-Lives of Gemcitibine 5'-Methylendiphosphonate and its Prodrugs",[4]; [8],.25 h
same,half-life at 500 μM,"[4]; human, 50% CEM cell extract",0.25 h
"[BH3-][P+](O)(OCC1OC(n2cc(C)c(=O)[nH]c2=O)CC1N=[N+]=[N-])OP(=O)(O)C(Cl)(Cl)P(=O)(O)O (single isomer, unassigned) [Compound 26-isomer 2, 3′-Azido-3′-deoxythymidine 5′-α-P-borano-β,γ-(dichloromethylene)triphosphate]",MIC,[1]; [6],10 µg/mL
same,MIC,[1]; [7],17.5 µM
same,half-life at 500 μM,"[2]; bovine, serum, Serum Half-Lives of NTPs and AZT Triphosphate Mimics",48 h
same,half-life at 500 μM,[4]; human,> 48 h
same,Ki,[3],74 nM
"Cc1cn([C@H]2C[C@H](N=[N+]=[N-])[C@@H](COP(=O)(O)NP(=O)(O)O)O2)c(=O)[nH]c1=O [Compound 8, 3′-azido-3′-deoxythymidine 5′-imidodiphosphate]",Ki,[3],4400 nM
"2′-Deoxy-2′,2′-difluorocytidine 5′-β-O—(S-pivaloyl-2-thioethyl) -α,β-methylene-diphosphonate [Compound 75]",S. aureus MIC,[5]; [6],15 µg/mL
same,S. aureus MIC,[5]; [7],(26) μM
"Cc1cn(C2CC(N=[N+]=[N-])C(COP(O)(=S)OP(=O)(O)C(F)(F)P(=O)(O)O)O2)c(=O)[nH]c1=O (stereo not drawn) [Compound 29, 3′-Azido-3′-deoxythymidine 5′-α-P-thio-β,γ-(difluoromethylene)triphosphate]",Ki,[3],90 nM
"CC(C)(C)C(=O)SCCOP(=O)(O)CP(=O)(OCCSC(=O)C(C)(C)C)OC[C@H]1O[C@@H](n2ccc(N)nc2=O)C(F)(F)[C@@H]1O (stereo partly drawn) [Compound 76, 2′-deoxy-2′,2′-difluorocytidine 5′-di-α, β-O—(S-pivaloyl-2-thioethyl)-α,β-methylenediphosphonate]",S. aureus MIC,[5]; [6],25 µg/mL
same,S. aureus MIC,[5]; [7],(35) μM
same,"Half-Life, Serum Half-Lives of Gemcitibine Diphosphate Mimics and Their Prodrugs","[2]; Table 8, 50% fetal calf serum, 37° C., 500 μM, time points through 48 hours",>48 h
same,"Half-Life, Cell Extract Half-Lives of Gemcitibine 5'-Methylendiphosphonate and its Prodrugs",[4]; [8],37 h
